Test results from patent publication US10131652B2, “Pyrimidinyloxy benzene derivatives as herbicides” (E. I. DU PONT DE NEMOURS AND COMPANY, priority 2014, dated 2018).
Where two headings read alike, the source gives them in different places.

Experiments:
Assay in all cases: Test E pre-/postemergence plant response
Assay type in all cases: in vivo
[1] = tested on: canarygrass (Phalaris minor); conditions: scale 0 to 100, read-out: Plant response rating, Canarygrass; for pest or weed control at 16 g/ha: 16 g ai/ha; for pest or weed control at 31 g/ha: 31 g ai/ha; for pest or weed control at 62 g/ha: 62 g ai/ha; for pest or weed control at 125 g/ha: 125 g ai/ha
How it was run: (§1)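 Pre-emergence: seeds sown in silt loam soil and sprayed with test chemicals in a non-phytotoxic solvent/surfactant mix. Post-emergence: plants at 2–18 cm (1- to 4-leaf stage) in peat/vermiculite medium treated with the same formulation. Visual rating versus controls after 7–21 days, 0 (no effect) to 100 (complete control).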

[2] = tested on: chamomile (scentless chamomile, Matricaria inodora); conditions: Tripleurospermum inodorum, scale 0 to 100, read-out: Plant response rating, Chamomile; for pest or weed control at 16 g/ha: 16 g ai/ha; for pest or weed control at 31 g/ha: 31 g ai/ha; for pest or weed control at 62 g/ha: 62 g ai/ha; for pest or weed control at 125 g/ha: 125 g ai/ha
How it was run: as §1

[3] = tested on: deadnettle (henbit deadnettle, Lamium amplexicaule); conditions: pre-emergence, Preemergence, scale 0 to 100, read-out: Plant response rating, Deadnettle
How it was run: as §1

[4] = tested on: downy bromegrass (Bromus tectorum); conditions: scale 0 to 100, read-out: Plant response rating, Bromegrass, Downy; for pest or weed control at 16 g/ha: 16 g ai/ha; for pest or weed control at 31 g/ha: 31 g ai/ha; for pest or weed control at 62 g/ha: 62 g ai/ha; for pest or weed control at 125 g/ha: 125 g ai/ha
How it was run: as §1

[5] = tested on: field poppy (Papaver rhoeas); conditions: scale 0 to 100, read-out: Plant response rating, Field Poppy; for pest or weed control at 16 g/ha: 16 g ai/ha; for pest or weed control at 31 g/ha: 31 g ai/ha; for pest or weed control at 62 g/ha: 62 g ai/ha; for pest or weed control at 125 g/ha: 125 g ai/ha
How it was run: as §1

[6] = tested on: oilseed rape (Brassica napus); conditions: scale 0 to 100, read-out: Plant response rating, Oilseed Rape; for plant injury at 16 g/ha: 16 g ai/ha; for plant injury at 31 g/ha: 31 g ai/ha; for plant injury at 62 g/ha: 62 g ai/ha; for plant injury at 125 g/ha: 125 g ai/ha
How it was run: as §1

[7] = tested on: spring wheat (Triticum aestivum); conditions: scale 0 to 100, read-out: Plant response rating, Wheat, Spring; for plant injury at 16 g/ha: 16 g ai/ha; for plant injury at 62 g/ha: 62 g ai/ha; for plant injury at 125 g/ha: 125 g ai/ha
How it was run: as §1

[8] = tested on: wild buckwheat (Polygonum convolvulus); conditions: Fallopia convolvulus, scale 0 to 100, read-out: Plant response rating, Buckwheat, Wild; for pest or weed control at 16 g/ha: 16 g ai/ha; for pest or weed control at 31 g/ha: 31 g ai/ha; for pest or weed control at 62 g/ha: 62 g ai/ha; for pest or weed control at 125 g/ha: 125 g ai/ha
How it was run: as §1

[9] = tested on: wild oat (Avena fatua); conditions: scale 0 to 100, read-out: Plant response rating, Oat, Wild; for pest or weed control at 16 g/ha: 16 g ai/ha; for pest or weed control at 31 g/ha: 31 g ai/ha; for pest or weed control at 62 g/ha: 62 g ai/ha; for pest or weed control at 125 g/ha: 125 g ai/ha
How it was run: as §1

[10] = tested on: windgrass (Apera spica-venti); conditions: scale 0 to 100, read-out: Plant response rating, Windgrass; for pest or weed control at 16 g/ha: 16 g ai/ha; for pest or weed control at 62 g/ha: 62 g ai/ha; for pest or weed control at 125 g/ha: 125 g ai/ha
How it was run: as §1

[11] = tested on: winter barley (Hordeum vulgare); conditions: scale 0 to 100, read-out: Plant response rating, Barley, Winter; for plant injury at 16 g/ha: 16 g ai/ha; for plant injury at 31 g/ha: 31 g ai/ha; for plant injury at 62 g/ha: 62 g ai/ha; for plant injury at 125 g/ha: 125 g ai/ha
How it was run: as §1

[12] = post-emergence, 31 g ai/ha, Postemergence

**Q.** What does the source list for `Fc1cccc(Oc2ncc(Cl)cn2)c1-c1cc(C(F)F)no1` [Compound 144, 5-chloro-2-[2-[3-(difluoromethyl)-5-isoxazolyl]-3-fluorophenoxy]pyrimidine]?
**A.** pest or weed control at 16 g/ha ([1]; post-emergence, Postemergence): 35%; pest or weed control at 31 g/ha ([1]; post-emergence, Postemergence): 60%; pest or weed control at 62 g/ha ([1]; post-emergence, Postemergence): 65%; pest or weed control at 125 g/ha ([1]; post-emergence, Postemergence): 85%; pest or weed control at 16 g/ha ([1]; pre-emergence, Preemergence): 35%; pest or weed control at 31 g/ha ([1]; pre-emergence, Preemergence): 80%; pest or weed control at 62 g/ha ([1]; pre-emergence, Preemergence): 100%; pest or weed control at 125 g/ha ([1]; pre-emergence, Preemergence): 100%; pest or weed control at 16 g/ha ([2]; post-emergence, Postemergence): 80%; pest or weed control at 31 g/ha ([2]; post-emergence, Postemergence): 75%; pest or weed control at 62 g/ha ([2]; post-emergence, Postemergence): 80%; pest or weed control at 125 g/ha ([2]; post-emergence, Postemergence): 95%; pest or weed control at 16 g/ha ([2]; pre-emergence, Preemergence): 15%; pest or weed control at 31 g/ha ([2]; pre-emergence, Preemergence): 20%; pest or weed control at 62 g/ha ([2]; pre-emergence, Preemergence): 100%; pest or weed control at 125 g/ha ([2]; pre-emergence, Preemergence): 100%; pest or weed control at 16 g/ha ([3]; 16 g ai/ha): 90%; pest or weed control at 31 g/ha ([3]; 31 g ai/ha): 100%; pest or weed control at 62 g/ha ([3]; 62 g ai/ha): 100%; pest or weed control at 125 g/ha ([3]; 125 g ai/ha): 100%; pest or weed control at 16 g/ha ([4]; post-emergence, Postemergence): 25%; pest or weed control at 31 g/ha ([4]; post-emergence, Postemergence): 35%; pest or weed control at 62 g/ha ([4]; post-emergence, Postemergence): 40%; pest or weed control at 125 g/ha ([4]; post-emergence, Postemergence): 75%; pest or weed control at 16 g/ha ([4]; pre-emergence, Preemergence): 10%; pest or weed control at 31 g/ha ([4]; pre-emergence, Preemergence): 10%; pest or weed control at 62 g/ha ([4]; pre-emergence, Preemergence): 35%; pest or weed control at 125 g/ha ([4]; pre-emergence, Preemergence): 55%; pest or weed control at 16 g/ha ([5]; post-emergence, Postemergence): 100%; pest or weed control at 31 g/ha ([5]; post-emergence, Postemergence): 100%; pest or weed control at 62 g/ha ([5]; post-emergence, Postemergence): 100%; pest or weed control at 125 g/ha ([5]; post-emergence, Postemergence): 100%; pest or weed control at 16 g/ha ([5]; pre-emergence, Preemergence): 100%; pest or weed control at 31 g/ha ([5]; pre-emergence, Preemergence): 100%; pest or weed control at 62 g/ha ([5]; pre-emergence, Preemergence): 100%; pest or weed control at 125 g/ha ([5]; pre-emergence, Preemergence): 100%; plant injury at 16 g/ha ([6]; post-emergence, Postemergence): 100%; plant injury at 31 g/ha ([6]; post-emergence, Postemergence): 100%; plant injury at 62 g/ha ([6]; post-emergence, Postemergence): 100%; plant injury at 125 g/ha ([6]; post-emergence, Postemergence): 100%; plant injury at 16 g/ha ([6]; pre-emergence, Preemergence): 35%; plant injury at 31 g/ha ([6]; pre-emergence, Preemergence): 80%; plant injury at 62 g/ha ([6]; pre-emergence, Preemergence): 100%; plant injury at 125 g/ha ([6]; pre-emergence, Preemergence): 100%; plant injury at 16 g/ha ([7]; post-emergence, Postemergence): 25%; plant injury at 31 g/ha [7, 12]: 35%; plant injury at 62 g/ha ([7]; post-emergence, Postemergence): 45%; plant injury at 125 g/ha ([7]; post-emergence, Postemergence): 75%; plant injury at 16 g/ha ([7]; pre-emergence, Preemergence): 5%; plant injury at 62 g/ha ([7]; pre-emergence, Preemergence): 40%; plant injury at 125 g/ha ([7]; pre-emergence, Preemergence): 55%; pest or weed control at 16 g/ha ([8]; post-emergence, Postemergence): 100%; pest or weed control at 31 g/ha ([8]; post-emergence, Postemergence): 95%; pest or weed control at 62 g/ha ([8]; post-emergence, Postemergence): 100%; pest or weed control at 125 g/ha ([8]; post-emergence, Postemergence): 100%; pest or weed control at 16 g/ha ([8]; pre-emergence, Preemergence): 85%; pest or weed control at 31 g/ha ([8]; pre-emergence, Preemergence): 100%; pest or weed control at 62 g/ha ([8]; pre-emergence, Preemergence): 100%; pest or weed control at 125 g/ha ([8]; pre-emergence, Preemergence): 100%; pest or weed control at 16 g/ha ([9]; post-emergence, Postemergence): 20%; pest or weed control at 31 g/ha ([9]; post-emergence, Postemergence): 25%; pest or weed control at 62 g/ha ([9]; post-emergence, Postemergence): 65%; pest or weed control at 125 g/ha ([9]; post-emergence, Postemergence): 90%; pest or weed control at 16 g/ha ([9]; pre-emergence, Preemergence): 35%; pest or weed control at 31 g/ha ([9]; pre-emergence, Preemergence): 30%; pest or weed control at 62 g/ha ([9]; pre-emergence, Preemergence): 65%; pest or weed control at 125 g/ha ([9]; pre-emergence, Preemergence): 75%; pest or weed control at 16 g/ha ([10]; post-emergence, Postemergence): 10%; pest or weed control at 31 g/ha [10, 12]: 20%; pest or weed control at 62 g/ha ([10]; post-emergence, Postemergence): 25%; pest or weed control at 125 g/ha ([10]; post-emergence, Postemergence): 55%; pest or weed control at 16 g/ha ([10]; pre-emergence, Preemergence): 10%; pest or weed control at 62 g/ha ([10]; pre-emergence, Preemergence): 100%; pest or weed control at 125 g/ha ([10]; pre-emergence, Preemergence): 100%; plant injury at 16 g/ha ([11]; post-emergence, Postemergence): 30%; plant injury at 31 g/ha ([11]; post-emergence, Postemergence): 20%; plant injury at 62 g/ha ([11]; post-emergence, Postemergence): 35%; plant injury at 125 g/ha ([11]; post-emergence, Postemergence): 45%; plant injury at 16 g/ha ([11]; pre-emergence, Preemergence): 30%; plant injury at 31 g/ha ([11]; pre-emergence, Preemergence): 35%; plant injury at 62 g/ha ([11]; pre-emergence, Preemergence): 55%; plant injury at 125 g/ha ([11]; pre-emergence, Preemergence): 55%
